This is an account of results in patent US20100305095A1, “Use of HPPD Inhibitors in the Treatment of Depression and/or Withdrawal Symptoms Associated with Addictive Drugs” (priority 2006, published 2010).

Bounds are passed on as bounds.

Format in all cases: in vivo
For one assay, the system named is rats. The assay is described as follows: Activity cage with automatic infrared activity monitoring (rearing, activity, mobility) in rats. Particulars: 2 mg/Kg oral, after 4 hours, one hour in activity cage. As to the method:
Analysis of stimulatory effect of HPPD inhibitors as a mechanism for the treatment of withdrawal symptoms associated with an addictive drug such as nicotine. 12 rats were dosed orally with 2 mg/Kg of 2-(2-Nitro-4-Trifluoromethylbenzoyl)-1,3-Cyclohexanedione. As a control, 12 rats were orally dosed with the dosing vehicle. After 4 hours, animals were each placed in an activity cage for one hour, containing an automatic activity monitoring system with infrared beams to determine activity and mobility.

Assay [1] has as its system plasma tyrosine, dopamine turnover and noradrenaline levels. Put plainly: Plasma tyrosine, dopamine turnover and noradrenaline levels in orally dosed rats. Particulars: 2 mg/Kg oral, after 24 hours. As to the method: 10 rats were dosed orally with 2 mg/Kg of 2-(2-Nitro-4-Trifluoromethylbenzoyl)-1,3-Cyclohexanedione. As a control, 10 rats were orally dosed with the dosing vehicle. After 24 hours, plasma tyrosine levels were identified. Dopamine levels and dopamine turnover and noradrenaline levels were also analysed.

Assay [2] concerns plasma tyrosine, dopamine levels and dopamine turnover. The assay is described as follows: Plasma tyrosine, dopamine levels and dopamine turnover in orally dosed mice. The conditions noted are these: 0.1 mg/Kg oral; for plasma tyrosine levels: vs vehicle control. On the procedure: Illustration of increase in levels and turnover of dopamine as a mechanism for treatment/prevention of depression and treatment of the withdrawal symptoms associated with withdrawal from an addictive drug such as cocaine. 10 mice were dosed orally with 0.1 mg/Kg of 2-(2-Nitro-4-Trifluoromethylbenzoyl)-1,3-Cyclohexanedione. As a control, 10 mice were orally dosed with the dosing vehicle. After 24 hours, plasma tyrosine levels were identified. Dopamine levels and dopamine turnover were also analysed. 10 mice were dosed orally with 0.1 mg/Kg of 2-(2-Nitro-4-Trifluoromethylbenzoyl)-1,3-Cyclohexanedione. As a control, 9 mice were orally dosed with the dosing vehicle. After 6 hours, plasma tyrosine levels were identified. Dopamine levels and dopamine turnover were also analysed.

As to `O=C1CCCC(O)=C1C(=O)c1ccc(C(F)(F)F)cc1[N+](=O)[O-]` [2-(2-Nitro-4-Trifluoromethylbenzoyl)-1,3-Cyclohexanedione], in the assay with rats, the “active time, decrease compared with the control group” value is listed as roughly 27%; the “activity counts, decrease compared with the control group” value is listed as “approximately 43%”; the “centre rearing counts, increase compared with the control group” value is given as 63%; the “effect on rearing behaviour” value is listed as “mild stimulatory effect”. Moreover, in the assay on rats, the “mean rearing counts, increase compared with the control group” value was 91%; the “mobile time, decrease compared with the control group” value is listed as roughly 49%; the “rearing time, increase compared with the control group” value is listed as 79%. In assay [1], the “dopamine turnover increase in the treated compared with the control group” value stood at 25%. Further, the “noradrenaline increase compared with the mean of the controls” value in assay [1] (cortex) is “up to 76%”. Further, the “noradrenaline increase compared with the mean of the controls” value in assay [1] (hypothalamus) is no more than 21%. Further, the plasma tyrosine levels result in assay [1] (vs vehicle control) is “elevated”. In assay [2] (after 6 hours), the “dopamine increase compared with the mean of the controls” value is listed as “up to 15%”, the “dopamine turnover increase compared with the mean of the controls” value is “up to 15%” and the plasma tyrosine levels entry was “elevated”. Further, in assay [2] (after 24 hours), the “dopamine increase compared with the mean of the controls” value was “up to 16%”, the “dopamine turnover increase compared with the mean of the controls” value was “up to 27%” and the plasma tyrosine levels result is listed as “elevated”.
